# Data taken from US20240343704A1, “HALO-SUBSTITUTED AMINO PYRIDINE COMPOUNDS AS INHIBITORS OF THE HAEMATOPOIETIC PROGENITOR KINASE 1 (HPK1)” (priority 2021, published 2024).
# Assays:
# [1] = molecular target: T1, Recombinant (1-346) HPK1 (h) (Homo sapiens, UniProt Q92918); test: HPK1 Human STE Kinase Enzymatic Radiometric Assay; type: biochemical; settings: read-out: HPK1 IC50 nM Range*
# T1 construct: Recombinant (1-346) HPK1 (h) is incubated with 8 mM MOPS pH 7.0
# T1 sequence (Q92918 1-346): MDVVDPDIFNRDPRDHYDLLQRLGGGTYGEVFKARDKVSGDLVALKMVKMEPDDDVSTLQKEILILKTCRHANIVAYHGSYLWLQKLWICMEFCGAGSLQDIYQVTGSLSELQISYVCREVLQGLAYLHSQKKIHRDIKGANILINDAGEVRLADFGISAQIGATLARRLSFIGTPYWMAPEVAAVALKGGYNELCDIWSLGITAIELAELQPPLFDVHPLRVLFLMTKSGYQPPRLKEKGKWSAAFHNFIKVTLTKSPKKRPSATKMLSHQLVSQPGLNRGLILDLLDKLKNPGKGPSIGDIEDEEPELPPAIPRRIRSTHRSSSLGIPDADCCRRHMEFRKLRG
# Experimental: A stock solution of 10 mM of test compound is prepared in DMSO. The compound plate was prepared by 3-fold and 9-point serial dilutions. […] The reaction is initiated by The addition of the Mg/ATP mix. After incubation for 40 minutes at RT, the reaction is stopped by the addition of phosphoric acid to a concentration of 0.5%.
# [2] = molecular target: Lck (h) (Homo sapiens, UniProt P06239); test: Lck Human  Kinase Enzymatic Radiometric Assay; type: biochemical; settings: for IC50: read-out: Lck IC50 nM Range*; for LcK IC50/HPK IC50 selectivity: ratio of Lck IC50 to HPK1 IC50
# Experimental: Lck (h) is incubated with 50 mM Tris pH 7.5, 0.1 mM EGTA, 0.1 mM Na3VO4, 250 uM KVEKIGEGTYGVVYK (Cdc2 peptide), 10 mM MgAcetate and [gamma-33P]-ATP (specific activity and concentration as required). The reaction is initiated by the addition of the Mg/ATP mix. After incubation for 40 minutes at RT, the reaction is stopped by the addition of phosphoric acid to a concentration of 0.5%. 10 uL of the reaction is then spotted onto a P30 filtermat and washed four times for 4 minutes in 0.425% phosphoric acid and once in methanol prior to drying and scintillation counting. For more details on the kinase assay procedures see: Gao, Y. et. al.; Biochem J., 451 (2): 313-328, 2013.
# Sequence of Lck (h) (P06239 whole entry): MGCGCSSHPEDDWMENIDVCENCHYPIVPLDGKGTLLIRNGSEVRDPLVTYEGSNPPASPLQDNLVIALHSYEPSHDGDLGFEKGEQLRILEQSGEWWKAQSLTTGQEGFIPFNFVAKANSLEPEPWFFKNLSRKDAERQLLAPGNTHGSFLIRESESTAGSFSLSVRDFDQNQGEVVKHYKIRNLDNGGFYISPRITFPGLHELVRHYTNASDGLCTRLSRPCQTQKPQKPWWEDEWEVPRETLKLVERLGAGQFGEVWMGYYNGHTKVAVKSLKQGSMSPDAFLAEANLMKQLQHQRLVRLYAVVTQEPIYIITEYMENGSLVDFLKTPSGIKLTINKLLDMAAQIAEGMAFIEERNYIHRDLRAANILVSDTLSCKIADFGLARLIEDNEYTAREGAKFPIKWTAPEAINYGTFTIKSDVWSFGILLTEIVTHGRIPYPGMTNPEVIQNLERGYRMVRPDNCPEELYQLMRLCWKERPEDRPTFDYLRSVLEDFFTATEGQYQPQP
IC50 [1] [nM],IC50 [2] [nM],LcK IC50/HPK IC50 selectivity [2],Structure (SMILES)
0.1 to 10,> 1000,,"CC(C)N1CCN(c2ccc(-c3cc(-c4ccc5c(c4)CCNC5=O)c(N)nc3F)c(F)c2F)CC1 [I-345, 6-(2-amino-5-(2,3-difluoro-4-(4-isopropylpiperazin-1-yl)phenyl)-6-fluoropyridin-3-yl)-3,4-dihydroisoquinolin-1(2H)-one]"
0.1 to 10,> 1000,,"CC(C)N1CCN(c2ccc(-c3cc(-c4cc5cc[nH]c(=O)c5cn4)c(N)nc3F)cc2)CC1 [I-401, 6-(2-amino-6-fluoro-5-(4-(4-isopropylpiperazin-1-yl)phenyl)pyridin-3-yl)-2,7-naphthyridin-1(2H)-one]"
0.1 to 10,> 1000,,"CCN(C)Cc1nc(-c2cc(-c3ccc4c(c3)CCNC4=O)c(N)nc2F)ccc1N1CCOCC1 [I-580, 6-(6′-amino-6-((ethyl(methyl)amino)methyl)-2′-fluoro-5-morpholino-[2,3′-bipyridin]-5′-yl)-3,4-dihydroisoquinolin-1(2H)-one]"
0.1 to 10,> 1000,,"CO[C@H](C)CN1CCN(c2ccc(-c3cc(-c4ccc5c(c4)CCNC5=O)c(N)nc3F)cc2)CC1 [I-25, (R)-6-(2-amino-6-fluoro-5-(4-(4-(2-methoxypropyl)piperazin-1-yl)phenyl)pyridin-3-yl)-3,4-dihydroisoquinolin-1(2H)-one]"
101 to 1000,> 1000,,"CC(C)[C@H]1CN(c2ccc(-c3cc(-c4ccc5c(c4)CCNC5=O)c(N)nc3Cl)cc2)CCO1 [I-136, (S)-6-(2-amino-6-chloro-5-(4-(2-isopropylmorpholino)phenyl)pyridin-3-yl)-3,4-dihydroisoquinolin-1(2H)-one]"
0.1 to 10,> 1000,,"COCCN1CCN(c2ccc(-c3cc(-c4ccc5c(c4)CCNC5=O)c(N)nc3F)cc2)CC1 [I-29, 6-(2-amino-6-fluoro-5-(4-(4-(2-methoxyethyl)piperazin-1-yl)phenyl)pyridin-3-yl)-3,4-dihydroisoquinolin-1(2H)-one]"
0.1 to 10,> 1000,,"CS(=O)(=O)[C@@H]1CCN(c2ccc(-c3cc(-c4ccc5c(c4)CCNC5=O)c(N)nc3F)cc2)C1 [I-116, (R)-6-(2-amino-6-fluoro-5-(4-(3-(methylsulfonyl)pyrrolidin-1-yl)phenyl)pyridin-3-yl)-3,4-dihydroisoquinolin-1(2H)-one]"
0.1 to 10,> 1000,,"COc1cc(-c2cc(-c3ccc4c(c3)CCNC4=O)c(N)nc2F)ccc1OC1CCN(C(C)=O)CC1 [I-305, 6-(5-(4-((1-acetylpiperidin-4-yl)oxy)-3-methoxyphenyl)-2-amino-6-fluoropyridin-3-yl)-3,4-dihydroisoquinolin-1(2H)-one]"
11 to 100,> 1000,,"CC(C)[C@H]1CN(c2ccc(-c3cc(-c4ccc5c(c4)CCNC5=O)c(N)nc3F)cc2C(F)(F)F)CCO1 [I-130, (S)-6-(2-amino-6-fluoro-5-(4-(2-isopropylmorpholino)-3-(trifluoromethyl)phenyl)pyridin-3-yl)-3,4-dihydroisoquinolin-1(2H)-one]"
,> 1000,,"Nc1nc(F)c(-c2ccc(N3CCOCC3)cc2)cc1-c1ccc2c(c1)CCNC2=O [I-16, 6-(2-amino-6-fluoro-5-(4-morpholinophenyl)pyridin-3-yl)-3,4-dihydroisoquinolin-1(2H)-one]"
,> 1000,,"Nc1nc(F)c(-c2ccc(N3CCN(CCCC(F)F)CC3)cc2)cc1-c1cc2c(cc1F)C(=O)NCC2 [I-441, 6-(2-amino-5-(4-(4-(4,4-difluorobutyl)piperazin-1-yl)phenyl)-6-fluoropyridin-3-yl)-7-fluoro-3,4-dihydroisoquinolin-1(2H)-one]"

# The next lines start with the compound.
Structure (SMILES),IC50 [1] [nM],IC50 [2] [nM],LcK IC50/HPK IC50 selectivity [2]
Nc1nc(F)c(-c2ccc3c(c2)OCCCO3)cc1-c1ccc2c(c1)CCNC2=O [drawing 2687],,,1429
Nc1nc(F)c(-c2ccc(N3CCCC3)cc2)cc1-c1ccc2c(c1)CCNC2=O [drawing 2677],,,769
Nc1ncc(-c2ccc(N3CCN4CCCC4C3)cc2)cc1-c1ccc2c(c1)CCNC2=O (stereo not drawn) [reference compound],,,20
Nc1nc(F)c(-c2ccc(N3C[C@H]4COC[C@H]4C3)cc2)cc1-c1ccc2c(c1)CCNC2=O,,,323
Nc1nc(F)c(-c2ccc(N3CCCN4CCCC4C3)cc2)cc1-c1ccc2c(c1)CCNC2=O (stereo not drawn) [drawing 2691],,,1073
Nc1nc(F)c(-c2ccc(C3CCNCC3)cc2)cc1-c1cc2c(cc1F)C(=O)NCC2 [drawing 2693],,,704
Nc1nc(F)c(-c2cnn(C3CCOCC3)c2)cc1-c1ccc2c(c1)CCNC2=O [drawing 2675],,,2000
Nc1nc(F)c(-c2ccc(N3CCNCC3)c(C(F)(F)F)c2)cc1-c1ccc2c(c1)CCNC2=O [drawing 2685],,,2580
Nc1ncc(-c2ccc(N3CCCC3)cc2)cc1-c1ccc2c(c1)CCNC2=O [reference compound],,,69
Nc1ncc(-c2ccc(N3CCCCC3)cc2)cc1-c1ccc2c(c1)CCNC2=O [reference compound],,,79
Nc1nc(F)c(-c2ccc(C3CCNCC3)cc2)cc1-c1ccc2c(c1)CCNC2=O [drawing 2673],,,1603
Nc1ncc(-c2cnn(C3CCOCC3)c2)cc1-c1ccc2c(c1)CCNC2=O [reference compound],,,0.2
Nc1ncc(-c2ccc(N3CCNCC3)c(C(F)(F)F)c2)cc1-c1ccc2c(c1)CCNC2=O [reference compound],,,145
Nc1nc(F)c(-c2ccc(N3C[C@@H]4CCO[C@@H]4C3)cc2)cc1-c1ccc2c(c1)CCNC2=O [drawing 2683],,,1429
Nc1ncc(-c2ccc(N3C[C@H]4COC[C@H]4C3)cc2)cc1-c1ccc2c(c1)CCNC2=O [reference compound],,,51
Nc1ncc(-c2ccc(N3CCCN4CCCC4C3)cc2)cc1-c1ccc2c(c1)CCNC2=O (stereo not drawn) [reference compound],,,92
Nc1ncc(-c2ccc(C3CCNCC3)cc2)cc1-c1cc2c(cc1F)C(=O)NCC2 [reference compound],,,27
Nc1nc(F)c(-c2ccc(N3CCCCC3)cc2)cc1-c1ccc2c(c1)CCNC2=O [drawing 2679],,,1250
Nc1ncc(-c2ccc(C3CCNCC3)cc2)cc1-c1ccc2c(c1)CCNC2=O [reference compound],,,45
Nc1ncc(-c2ccc(N3C[C@@H]4CCO[C@@H]4C3)cc2)cc1-c1ccc2c(c1)CCNC2=O [reference compound],,,34
Nc1ncc(-c2ccc3c(c2)OCCCO3)cc1-c1ccc2c(c1)CCNC2=O [reference compound],,,485
Nc1nc(F)c(-c2ccc(N3CCN4CCCC4C3)cc2)cc1-c1ccc2c(c1)CCNC2=O (stereo not drawn) [drawing 2689],,,1480
